Test results taken from PubChem BioAssay (NCI).
Several values for one entry are separate records, joined by “and”; a condition that tells them apart may be missing. Identical values can stand only once.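 Step 1: Grow cells in 96-well plates. Step 2: Expose to compound for 48 hours at 5 concentrations. Step 3: Interpolate endpoints linearly; if unreached, use highest concentration. GI50 marks 50% less growth. Definition used: TGI = concentration required for complete inhibition of growth.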

What was measured:
Assay in all cases: NCI anticancer screen, dose series, 48 h
A549 NSCLC = tested on: A549 NSCLC
CCRF-CEM leukemia = tested on: CCRF-CEM leukemia
HOP-92 NSCLC = tested on: HOP-92 NSCLC
HS 578T breast = tested on: HS 578T breast
LOX IMVI melanoma = tested on: LOX IMVI melanoma
NCI-H226 lung = tested on: NCI-H226 lung
NCI-H522 lung = tested on: NCI-H522 lung
OVCAR-5 ovarian = tested on: OVCAR-5 ovarian
SK-MEL-5 melanoma = tested on: SK-MEL-5 melanoma
RXF 393 renal = tested on: RXF 393 renal

SMILES	GI50 (A549 NSCLC)	TGI (A549 NSCLC)	GI50 (CCRF-CEM leukemia)	TGI (CCRF-CEM leukemia)	GI50 (HOP-92 NSCLC)	GI50 (HS 578T breast)	TGI (HS 578T breast)	GI50 (LOX IMVI melanoma)	TGI (LOX IMVI melanoma)	GI50 (NCI-H226 lung)	TGI (NCI-H226 lung)	GI50 (NCI-H522 lung)	TGI (NCI-H522 lung)	TGI (OVCAR-5 ovarian)	GI50 (SK-MEL-5 melanoma)	TGI (SK-MEL-5 melanoma)	TGI (HOP-92 NSCLC)	TGI (RXF 393 renal)	GI50 (OVCAR-5 ovarian)	GI50 (RXF 393 renal)
CC[C@H](C)[C@H](NC(=O)[C@H]1CCCCN1C)C(=O)N(C)[C@H](C[C@@H](OC(C)=O)c1nc(C(=O)NC23CC(C(=O)OC)(C2)C3)cs1)C(C)C	0.00378 µM and 0.00325 µM	> 32.5 µM	0.000402 µM and 0.00325 µM	1.47 µM	0.000734 µM	0.000388 µM and 0.00325 µM	> 32.5 µM	0.00054 µM and 0.00325 µM	> 32.5 µM	0.133 µM	9.18 µM	0.000156 µM and < 0.00325 µM	0.000901 µM and < 0.00325 µM	> 32.5 µM	0.000748 µM and 0.00325 µM	0.0299 µM and 0.0384 µM				
CCO/C=C1\SC(=S)N(c2ccc(OCC)cc2)C1=O		> 100 µM		> 100 µM			> 100 µM		> 100 µM		> 100 µM		> 100 µM	> 100 µM		> 100 µM	> 100 µM	> 100 µM		
CCCCCC(=O)O[C@]1(C(C)=O)CCC2C3CCC4=CC(=O)CC[C@]4(C)C3CC[C@@]21C (stereo not given in full)	2.78 µM	15.9 µM	2.3 µM	5.83 µM	0.766 µM	0.421 µM	> 50.5 µM	1.67 µM	3.14 µM	1.8 µM	4.78 µM	1.88 µM	5.63 µM	22.3 µM	1.43 µM	2.77 µM	3.31 µM	4.47 µM	5.04 µM	1.81 µM
O=C(c1cccs1)c1c(C(F)(F)F)n([O-])c2cc(Cl)c(Cl)cc2[n+]1=O	2.72 µM	5.85 µM	< 0.0387 µM	0.0617 µM	1.41 µM	2.02 µM	4.11 µM	0.0703 µM	0.493 µM	1.96 µM	3.79 µM	0.55 µM	2.2 µM	3.16 µM	1.28 µM	2.65 µM	2.85 µM	3.23 µM	1.77 µM	1.79 µM
CNCc1ccc(-c2cc(-c3nc(-c4ccc(S(=O)(=O)C(C)C)cc4)cnc3N)on2)cc1			0.215 µM	3.42 µM	13.3 µM	4.61 µM	38 µM			18.8 µM	44.1 µM	14.7 µM	39.2 µM	21.9 µM	2.59 µM	12.3 µM	30.6 µM		4.02 µM	
COc1cc2nnc3c4cccnc4[nH]c3c2cc1OC	16 µM and 7.9 µM	50 µM and 31.7 µM			0.771 µM and 0.212 µM	4.21 µM and 3.7 µM	50 µM and 82.7 µM	1.43 µM and 1.41 µM	15.7 µM and 4.69 µM	5.44 µM and 1.94 µM	21.4 µM and 5.11 µM	1.65 µM and 2.05 µM	16.6 µM and 7.6 µM	50 µM and 7.24 µM	8.57 µM and 7.33 µM	21.2 µM and 22.2 µM			7.26 µM and 2.53 µM	1.17 µM and 0.707 µM
Cc1ccc(S(=O)(=O)NCCCCC(N)C(=O)O)cc1 (stereo not given)		> 100 µM		> 100 µM			> 100 µM				> 100 µM		> 100 µM	> 100 µM		> 100 µM	> 100 µM	> 100 µM		
